According to patent publication US7932277B2, “Peptide inhibitors of hepatitis C virus replication” (InterMune, Inc., priority 2007, dated 2011):
Like-named read-outs stand apart in the source and are kept apart here.

Tests used:
[1] = target: T1, NS3/NS4A-2 (full-length HCV NS3 protease complexed with NS4A-2) (Hepatitis C virus genotype 1a, UniProt P27958); assay: NS3 inhibition assay (NS3-NS4 protease assay); type: biochemical; details: recombinant full-length NS3/NS4A-2, RETS1 substrate, kinetic fluorescence read; read-out: NS3-NS4 IC50
T1 construct: Recombinant E. coli or Baculovirus full-length NS3; host or cells: E. coli or baculovirus (insect cells)
Procedure: Recombinant E. coli or Baculovirus full-length NS3 was diluted to 3.33 μM with assay buffer and transferred material to an eppendorf tube and place in water bath in 4° C. refrigerator. The appropriate amount of NS4A-2 to 8.3 mM in assay buffer was added to equal the volume of NS3 in step 2.1.1 (conversion factor −3.8 mg/272 μL assay buffer). The material was transferred to an eppendorf tube and place in water bath in 4° C. refrigerator.
After equilibration to 4° C., equal volumes of NS3 and NS4A-2 solutions were combined in an eppendorf tube, mix gently with a manual pipettor, and incubate mixture for 15 minutes in the 4° C. water bath. Final concentrations in the mixture are 1.67 μM NS3, 4.15 mM NS4A-2 (2485-fold molar excess NS4A-2).
After 15 minutes at 4° C., the NS3/NS4A-2 eppendorf tube was removed and place it in a room temperature water bath for 10 minutes. NS3/NS4A-2 was aliquoted at appropriate volumes and store at −80° C. (E. coli NS3 run at 2 nM in assay, aliquot at 25 μL. BV NS3 run at 3 nM in assay, aliquot at 30 μL).
Sample compounds were dissolved to 10 mM in DMSO then diluted to 2.5 mM (1:4) in DMSO. Typically, compounds were added to an assay plate at 2.5 mM concentration, yielding upon dilution a starting concentration of 50 microM in the assay inhibition curve. Compounds were serial diluted in assay buffer to provide test solutions at lower concentrations.
The E. coli. NS3/NS4A-2 was diluted to 4 nM NS3 (1:417.5 of 1.67 μM stock−18 μL1.67 μM stock+7497 μL assay buffer). The BV NS3/NS4A-2 was diluted to 6 nM NS3 (1:278.3 of 1.67 μM stock−24 μL1.67 μM stock+6655 μL assay buffer). Using the manual multichannel pipettor, careful not to introduce bubbles into the plate, add 50 μL assay buffer to wells A01-H01 of a black Costar 96-well polypropylene storage plate.
Using the manual multichannel pipettor, careful not to introduce bubbles into the plate, add 50 μL of diluted NS3/NS4A-2 from step 2.2.6 to wells A02-H12 of plate in step 2.2.7. Using the manual multichannel pipettor, careful not to introduce bubbles into the plate, transfer 25 μL of the wells in drug dilution plate in step 2.2.5 to corresponding wells in assay plate in step 2.2.8. Change tips on multichannel pipettor for each row of compounds transferred. Using the manual multichannel pipettor, careful not to introduce bubbles into the plate, mix the wells from the assay plate in step 2.2.9 by aspirating and dispensing 35 μL of the 75 μL in each well five times. Change tips on multichannel pipettor for each row of wells mixed. Cover plate with a polystyrene plate lid and pre-incubate the plate from step 2.2.10 containing NS3 protease and sample compounds 10 minutes at room temperature. While plate from step 2.2.11 is pre-incubating, dilute RETS1 substrate in a 15 mL polypropylene centrifuge tube. Dilute RETS1 substrate to 8 μM (1:80.75 of 646 μM stock−65 μL 646 μM stock+5184 μL assay buffer).
After the plate in step is done pre-incubating, and using the manual multichannel, add 25 μL of substrate to all wells on the plate. Quickly mix the plate as in step 2.2.10, mixing 65 μL of the 100 μL in the wells.
Read the plate in kinetic mode on the Molecular Devices SpectraMax Gemini XS plate reader. Reader settings: Read time: 30 minutes, Interval: 36 seconds, Reads: 51, Excitation λ: 335 nm, Emission λ: 495 nm, cutoff: 475 nm, Automix: off, Calibrate: once, PMT: high, Reads/well: 6, Vmax pts: 21 or 28/51 depending on length of linearity of reaction
IC50s are determined using a four parameter curve fit equation, and converted to Ki's using the following Km's: • Full-length E. coli NS3−2.03 μM • Full-length BV NS3−1.74 μM • where Ki=IC50/(1+[S]/Km)) • Quantitation by ELISA of the Selectable Marker Protein, Neomycin Phosphotransferase II (NPTII) in the HCV Sub-Genomic Replicon, GS4.3

[2] = system: HCV sub-genomic replicon (1377/NS3-3') in HuH-7 hepatoma cells (GS4.3); assay: Quantitation by ELISA of NPTII in the HCV sub-genomic replicon, GS4.3; type: cell-based, hepatitis C virus (HCV); details: GS4.3 cells, 72 h incubation, NPTII ELISA, read-out: Replicon EC50
Procedure: The HCV sub-genomic replicon (1377/NS3-3′, accession No. AJ242652), stably maintained in HuH-7 hepatoma cells, was created by Lohmann et al. Science 285: 110-113 (1999). The replicon-containing cell culture, designated GS4.3, was obtained from Dr. Christoph Seeger of the Institute for Cancer Research, Fox Chase Cancer Center, Philadelphia, Pa.
GS4.3 cells were maintained at 37° C., 5% CO2, in DMEM (Gibco 11965-092) supplemented with L-glutamine 200 mM (100×) (Gibco25030-081), non-essential amino acids (NEAA) (Biowhittaker 13-114E), heat-inactivated (HI) Fetal Bovine Serum (FBS) (Hyclone SH3007.03) and 750 μg/mL geneticin (G418)(Gibco 10131-035). Cells were sub-divided 1:3 or 4 every 2-3 days.
24 h prior to the assay, GS4.3 cells were collected, counted, and plated in 96-well plates (Costar 3585) at 7500 cells/well in 100 μL standard maintenance medium (above) and incubated in the conditions above. To initiate the assay, culture medium was removed, cells were washed once with PBS (Gibco 10010-023) and 90 μl Assay Medium (DMEM, L-glutamine, NEAA, 10% HI FBS, no G418) was added. Inhibitors were made as a 10× stock in Assay Medium, (3-fold dilutions from 10 μM to 56 pM final concentration, final DMSO concentration 1%), 10 μL were added to duplicate wells, plates were rocked to mix, and incubated as above for 72 h.
An NPTII Elisa kit was obtained from AGDIA, Inc. (Compound direct ELISA test system for Neomycin Phosphotransferase II, PSP 73000/4800). Manufacturer's instructions were followed, with some modifications. 10×PEB-1 lysis buffer was made up to include 500 μM PMSF (Sigma P7626, 50 mM stock in isopropanol). After 72 h incubation, cells were washed once with PBS and 150 μL PEB-1 with PMSF was added per well. Plates were agitated vigorously for 15 minutes, room temperature, then frozen at −70° C. Plates were thawed, lysates were mixed thoroughly, and 100 μl were applied to an NPTII Elisa plate. A standard curve was made. Lysate from DMSO-treated control cells was pooled, serially diluted with PEB-1 with PMSF, and applied to duplicate wells of the ELISA plate, in a range of initial lysate amount of 150 μL-2.5 μL. In addition, 100 μL buffer alone was applied in duplicate as a blank. Plates were sealed and gently agitated at room temperature for 2 h. Following capture incubation, the plates were washed 5×300 μL with PBS-T (0.5% Tween-20, PBS-T was supplied in the ELISA kit). For detection, a 1× dilution of enzyme conjugate diluent MRS-2 (5×) was made in PBS-T, into which 1:100 dilutions of enzyme conjugates A and B were added, as per instructions. Plates were resealed, and incubated with agitation, covered, room temperature, for 2 h. The washing was then repeated and 100 μL of room temperature TMB substrate was added. After approximately 30 minutes incubation (room temperature, agitation, covered), the reaction was stopped with 50 μL 3M sulfuric acid. Plates were read at 450 nm on a Molecular Devices Versamax plate reader.
Inhibitor effect was expressed as a percentage of DMSO-treated control signal, and inhibition curves were calculated using a 4-parameter equation: y=A+((B−A)/(1+((C/x)^D))), where C is half-maximal activity or EC50.

T1 sequence (P27958 1027-1657, one chain of several): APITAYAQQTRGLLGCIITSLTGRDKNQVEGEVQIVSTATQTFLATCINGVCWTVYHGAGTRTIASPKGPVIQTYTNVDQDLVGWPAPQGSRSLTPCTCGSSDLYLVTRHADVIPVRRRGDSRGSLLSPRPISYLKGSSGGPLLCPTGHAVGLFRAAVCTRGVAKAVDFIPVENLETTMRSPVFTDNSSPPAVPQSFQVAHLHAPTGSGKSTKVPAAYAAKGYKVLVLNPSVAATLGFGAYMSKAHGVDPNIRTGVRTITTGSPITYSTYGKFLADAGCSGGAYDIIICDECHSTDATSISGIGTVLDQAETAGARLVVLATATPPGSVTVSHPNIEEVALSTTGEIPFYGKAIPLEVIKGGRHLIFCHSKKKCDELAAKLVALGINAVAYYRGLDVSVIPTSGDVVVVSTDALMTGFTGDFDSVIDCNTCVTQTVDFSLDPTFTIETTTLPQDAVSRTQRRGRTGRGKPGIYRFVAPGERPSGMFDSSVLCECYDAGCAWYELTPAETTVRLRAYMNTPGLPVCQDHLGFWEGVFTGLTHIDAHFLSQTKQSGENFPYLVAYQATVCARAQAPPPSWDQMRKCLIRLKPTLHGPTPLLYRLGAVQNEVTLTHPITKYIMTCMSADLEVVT

Q: For `C=C[C@@H]1C[C@]1(NC(=O)[C@@H]1C[C@@H](OC(=O)N2Cc3cccc(Cl)c3C2)CN1C(=O)[C@@H](Nc1ccc(F)cc1)C(C)C)C(=O)NS(=O)(=O)C1CC1` [Compound 34, [(3R,5S)-5-((1R,2S)-1-(cyclopropylsulfonylcarbamoyl)-2-vinylcyclopropylcarbamoyl)-1-((S)-2-(4-fluorophenylamino)-3-methylbutanoyl)pyrrolidin-3-yl]4-chloroisoindoline-2-carboxylate], which IC50 [1] is on record?
A: The IC50 was < 100 nM.

Q: What about the EC50 ([2]; Hepatitis C virus, Huh-7) of the same molecule?
A: The EC50 was < 100 nM.

Q: `C=C[C@@H]1C[C@]1(NC(=O)[C@@H]1C[C@@H](OC(=O)N2Cc3cccc(F)c3C2)CN1C(=O)[C@@H](Nc1cccc(C(C)(C)C)c1)C(C)C)C(=O)NS(=O)(=O)C1CC1` [Compound 40, [(3R,5S)-1-((S)-2-(3-tert-butylphenylamino)-3-methylbutanoyl)-5-((1R,2S)-1-(cyclopropylsulfonylcarbamoyl)-2-vinylcyclopropylcarbamoyl)pyrrolidin-3-yl]4-fluoroisoindoline-2-carboxylate] was tested. Which IC50 [1] did it give?
A: The IC50 was < 100 nM.

Q: And the EC50 ([2]; Hepatitis C virus, Huh-7)?
A: The EC50 was < 100 nM.

Q: `CC[C@@H]1C[C@]1(NC(=O)[C@@H]1C[C@@H](OC(=O)N2Cc3cccc(Cl)c3C2)CN1C(=O)[C@@H](Nc1cc(F)cc(C(F)(F)F)c1)C(C)(C)C)C(=O)NS(=O)(=O)C1CC1` [Compound 77] was tested. Which EC50 ([2]; Hepatitis C virus, Huh-7) did it give?
A: The EC50 was < 100 nM.

Q: How did the IC50 [1] turn out when `CC[C@@H]1C[C@]1(NC(=O)[C@@H]1C[C@@H](OC(=O)N2Cc3cccc(F)c3C2)CN1C(=O)[C@@H](Nc1cccc(C(C)(C)C)c1)C(C)C)C(=O)NS(=O)(=O)C1CC1` [Compound 45, [(3R,5S)-1-((S)-2-(3-tert-butylphenylamino)-3-methylbutanoyl)-5-((1R,2R)-1-(cyclopropylsulfonylcarbamoyl)-2-ethylcyclopropylcarbamoyl)pyrrolidin-3-yl]4-fluoroisoindoline-2-carboxylate] was run?
A: Its IC50 is < 100 nM.

Q: What about the EC50 ([2]; Hepatitis C virus, Huh-7) of the same molecule?
A: Its EC50 is < 100 nM.

Q: Which IC50 [1] does the source give for `C=C[C@@H]1C[C@]1(NC(=O)[C@@H]1C[C@@H](OC(=O)N2Cc3cccc(F)c3C2)CN1C(=O)[C@@H](Nc1cncc(C(F)(F)F)c1)C(C)C)C(=O)NS(=O)(=O)C1CC1` [Compound 44, [(3R,5S)-5-((1R,2S)-1-(cyclopropylsulfonylcarbamoyl)-2-vinylcyclopropylcarbamoyl)-1-((S)-3-methyl-2-(5-(trifluoromethyl)pyridin-3-ylamino)butanoyl)pyrrolidin-3-yl]4-fluoroisoindoline-2-carboxylate] here?
A: Its IC50 is < 100 nM.

Q: What about the EC50 ([2]; Hepatitis C virus, Huh-7) of the same molecule?
A: The EC50 was 100 to 1000 nM.

Q: How did the IC50 [1] turn out when `C=C[C@@H]1C[C@]1(NC(=O)[C@@H]1C[C@@H](OC(=O)N2Cc3cccc(F)c3C2)CN1C(=O)[C@@H](Nc1ccc(C(C)(C)C)cc1)C(C)C)C(=O)NS(=O)(=O)C1CC1` [Compound 38, [(3R,5S)-1-((S)-2-(4-tert-butylphenylamino)-3-methylbutanoyl)-5-((1R,2S)-1-(cyclopropylsulfonylcarbamoyl)-2-vinylcyclopropylcarbamoyl)pyrrolidin-3-yl]4-fluoroisoindoline-2-carboxylate] was run?
A: The IC50 was < 100 nM.

Q: What about the EC50 ([2]; Hepatitis C virus, Huh-7) of the same molecule?
A: Its EC50 is 100 to 1000 nM.

Q: With “[(3R,5S)-5-(((1R,2R)-1-(Cyclopropylsulfonylcarbamoyl)-2-ethylcyclopropyl)carbamoyl)-1-((S)-2-(5-ethylthiazol-2-ylamino)-3,3-dimethylbutanoyl)pyrrolidin-3-yl]4-chloroisoindoline-2-carboxylate [Compound 66]” as the molecule, how does the IC50 [1] read?
A: Its IC50 is < 100 nM.

Q: And the EC50 [2]?
A: Its EC50 is < 100 nM.

Q: What does the source list for `CC[C@@H]1C[C@]1(NC(=O)[C@@H]1C[C@@H](OC(=O)N2Cc3cccc(Cl)c3C2)CN1C(=O)[C@@H](Nc1cccc(C(F)(F)F)c1)C(C)(C)C)C(=O)NOC(C)(C)C` [Compound 71]?
A: IC50 [1]: 100 to 1000 nM; EC50 ([2]; Hepatitis C virus, Huh-7): 100 to 1000 nM

Q: With `CC[C@@H]1C[C@]1(NC(=O)[C@@H]1C[C@@H](OC(=O)N2Cc3cccc(Cl)c3C2)CN1C(=O)[C@@H](Nc1cc(F)cc(C(F)(F)F)c1)C(C)(C)C)C(=O)NS(=O)(=O)C1CC1` [Compound 73, (3R,5S)-5-((1R,2R)-1-(cyclopropylsulfonylcarbamoyl)-2-ethylcyclopropylcarbamoyl)-1-((S)-2-(3-fluoro-5-(trifluoromethyl)phenylamino)-3,3-dimethylbutanoyl)pyrrolidin-3-yl 4-chloroisoindoline-2-carboxylate] as the molecule, how does the IC50 [1] read?
A: The IC50 was < 100 nM.

Q: With “[(3R,5S)-5-(((1R,2R)-1-(Cyclopropylsulfonylcarbamoyl)-2-ethylcyclopropyl)carbamoyl)-1-((S)-2-(5-isopropylthiazol-2-ylamino)-3,3-dimethylbutanoyl)pyrrolidin-3-yl]4-chloroisoindoline-2-carboxylate [Compound 65]” as the molecule, how does the IC50 [1] read?
A: Its IC50 is < 100 nM.
